The results in this text go back to patent US10329324B2 (viDA Therapeutics Inc., priority 2013, dated 2019).

The IC50 is the concentration that inhibits the measured activity by half.

The structures appear in SMILES notation. Structures can show the parent of a compound that is named as a salt.

In the test the target is T1, human Granzyme B (hGzmB) (Homo sapiens, UniProt P10144).
T1 construct: purchased Froelich Lab, Northshore University Health Systems Research Institute, Evanston, Ill., USA
T1 sequence (P10144 21-247): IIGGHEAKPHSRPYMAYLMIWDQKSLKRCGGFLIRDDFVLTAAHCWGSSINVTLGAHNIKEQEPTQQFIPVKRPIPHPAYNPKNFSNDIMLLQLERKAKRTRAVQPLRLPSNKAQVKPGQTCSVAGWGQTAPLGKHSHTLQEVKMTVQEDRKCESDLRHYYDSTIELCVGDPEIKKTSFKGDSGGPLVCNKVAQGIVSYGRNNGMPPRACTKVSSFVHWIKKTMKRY
Kind of test: Human Granzyme B enzymatic inhibition assay (fluorogenic, kinetic). In kind it is biochemical. The conditions noted are these: activity codes, Table 7; read-out: IC50 Activity Range. The method, then: A specific 2× assay buffer was prepared for the enzyme to be tested (see Table 2 for final 1× assay buffer compositions). If the assay buffer included DTT, it was added immediately prior to running the assay. A 2× enzyme mix was prepared (see Table 3 for enzyme assay conditions) at 80 uL per well. Compounds were screened at one or two appropriate concentrations (to determine the percent inhibition at those concentrations) and/or a full dose response curve (typically 8 points, to identify the IC50) in duplicate, triplicate, or higher replicates as needed. An appropriate control was also assessed in full dose response, in duplicate for each assay/plate. Background control wells consisted of 1× assay buffer, DMSO (5% v/v) and substrate. Positive control wells consisted of enzyme, DMSO (5% v/v) and substrate. Test compounds and control compounds were diluted in DMSO to […] the final desired concentration. For example, a test compound may be tested in dose response, in serial, tripling dilution condition starting at 20 uM and ending at 9.1 nM (or any appropriate concentration range and dilution scheme). Control compounds were prepared similarly. Diluted compounds were prepared in a dilution plate and transferred to the reaction plate (96-well medium binding plate (Greiner Bio-One FLUOTRAC™)) to allow for the desired final concentrations when added to the enzyme with AB. After mixing, the reaction plate was placed on a shaker (at 300 RPM) for 5 min, followed by incubation (covered) on the bench, for 20 min. Plates were warmed to reaction temperature (see Table 3) for a total incubation time of 30 min. Plates so prepared were ready for addition of substrate and the subsequent reaction.
(§1) An appropriate substrate for each assay was prepared in advance at 2× the final desired concentration (see Table 2) in DMSO. The appropriate substrate mix was added to each appropriate well on the reaction plate, and the plate was read immediately in the TECAN plate reader (TECAN INFINITE® M1000 Pro), set to the correct wavelength as needed for each assay (see Table 3) using 25 cycles, kinetic interval of 1 min, number of reads per well of 20 with shaking set to 1 s, double orbital, 2 mm amplitude. For fluorescent assays the gain was set to optimal (50%).
An in vitro fluorogenic detection assay for assessing the IC50 and/or percent inhibition at a given concentration of inhibitors against human Granzyme B (hGzmB) enzyme was performed as described in Example D1. When appropriate, percent inhibition data was collected and fitted to generate IC50 data using GraphPad Prism 5 (GraphPad Software, La Jolla Calif. USA, www.graphpad.com) and its non-linear regression analysis tools or other equivalent tools. […]
as §1, with “5)” for “2)”, “assay buffer. 30 uL of the” for “DMSO. The”, “6)” for “3)”, “15” for “25”, “(100% with gain regulation) for all assays except human GzmB which was set to 85 (with the z set at 23000 um).” for “(50%).”
An in vitro fluorogenic detection assay for assessing the IC50 and/or percent inhibition at a given concentration of inhibitors against human Granzyme B (hGzmB) enzyme was performed as described in Example D5. When appropriate, percent inhibition data was collected and fitted to generate IC50 data using GraphPad Prism 5 (GraphPad Software, La Jolla Calif. USA, www.graphpad.com) and its non-linear regression analysis tools or other equivalent tools.
As to `CC[C@H](C)[C@H](NC(=O)CC(C)CC(=O)O)C(=O)NCC(=O)N1c2ccccc2C[C@H]1C(=O)NCc1nn[nH]n1` (stereo partly drawn) [Example A17, 3-Methyl-4-{[(1S,2S)-2-Methyl-1-({2-Oxo-2-[(2S)-2-[(2H-1,2,3,4-Tetrazol-5-Ylmethyl)Carbamoyl]-2,3-Dihydro-1H-Indol-1-Yl]Ethyl}Carbamoyl)Butyl]Carbamoyl}Butanoic Acid], the IC50 was less than 100 nM. Consider `CC[C@H](C)[C@H](NC(=O)Cc1ccccc1)C(=O)NCC(=O)N1c2ccc([N+](C)(C)C)cc2C[C@H]1C(=O)NCc1nn[nH]n1` [Example C34, (2S)—N,N,N-Trimethyl-1-{2-[(2S,3S)-3-Methyl-2-(2-Phenylacetamido)Pentanamido]Acetyl}-2-[(2H-1,2,3,4-Tetrazol-5-Ylmethyl)Carbamoyl]-2,3-Dihydro-1H-Indol-5-Aminium Iodide], for which the IC50 was more than 10000 nM. With `CC[C@H](C)[C@H](NC(=O)C1CCCC1C(=O)O)C(=O)NCC(=O)N1c2ccccc2C[C@H]1C(=O)NCc1nn[nH]n1` (single isomer, unassigned) [Example A57-2] the figure was less than 100 nM; with `CC[C@H](C)[C@H](NC(=O)C1CCCC1C(=O)O)C(=O)NCC(=O)N1c2ccccc2C[C@H]1C(=O)NCc1nn[nH]n1` (single isomer, unassigned) [Example A57-1], less than 100 nM; with `CC[C@H](C)[C@H](NC(=O)C[C@@H](N)C(=O)O)C(=O)NCC(=O)N1c2ccccc2C[C@H]1C(=O)NCc1nn[nH]n1` [Example A40, (2R)-2-Amino-3-{[(1S,2S)-2-Methyl-1-({2-Oxo-2-[(2S)-2-[(2H-1,2,3,4-Tetrazol-5-Ylmethyl)Carbamoyl]-2,3-Dihydro-1H-Indol-1-Yl]Ethyl}Carbamoyl)Butyl]Carbamoyl}Propanoic Acid], 100 to 1000 nM. The figure for `O=C(O)CCC(=O)N[C@H](C(=O)NCC(=O)N1c2ccccc2C[C@H]1C(=O)NCc1nn[nH]n1)c1ccccc1` [Example C38, 3-{[(S)-({2-Oxo-2-[(2S)-2-[(2H-1,2,3,4-Tetrazol-5-Ylmethyl)Carbamoyl]-2,3-Dihydro-1H-Indol-1-Yl]Ethyl}Carbamoyl)(Phenyl)Methyl]Carbamoyl}Propanoic Acid] is 100 to 1000 nM; for `CC[C@H](C)[C@H](NC(=O)/C=C/C(=O)O)C(=O)NCC(=O)N1c2ccccc2C[C@H]1C(=O)NCc1nn[nH]n1` [Example A36, (2E)-3-{[(1S,2S)-2-Methyl-1-({2-Oxo-2-[(2S)-2-[(2H-1,2,3,4-Tetrazol-5-Ylmethyl)Carbamoyl]-2,3-Dihydro-1H-Indol-1-Yl]Ethyl}Carbamoyl)Butyl]Carbamoyl}Prop-2-Enoic Acid] it is less than 100 nM. With `CC[C@H](C)[C@H](NC(=O)Cc1ccccc1)C(=O)NCC(=O)N1c2ccccc2CCC1C(=O)NCc1c[nH]nn1` (mixture of isomers) [Example B5, (2S)-1-{2-[(2S,3S)-3-Methyl-2-(2-Phenylacetamido)Pentanamido]Acetyl}-N-(1H-1,2,3-Triazol-4-Ylmethyl)-1,2,3,4-Tetrahydroquinoline-2-Carboxamide] the figure was 1000 to 10000 nM. In the case of `CC[C@H](C)[C@H](NC(=O)[C@@H](C)c1ccccc1)C(=O)NCC(=O)N1c2ccccc2C[C@H]1C(=O)NCc1nn[nH]n1` [Example A50, (2S)-1-{2-[(2S,3S)-3-Methyl-2-[(2S)-2-Phenylpropanamido]Pentanamido]Acetyl}-N-(2H-1,2,3,4-Tetrazol-5-Ylmethyl)-2,3-Dihydro-1H-Indole-2-Carboxamide], the IC50 lay within 100 to 1000 nM.

Consider `CC[C@H](C)[C@H](NC(=O)C1=C(C(=O)O)CCCC1)C(=O)NCC(=O)N1c2ccccc2C[C@H]1C(=O)NCc1nn[nH]n1` [Example A31], for which the half-inhibitory concentration (IC50) was less than 100 nM. As for `CC[C@H](C)[C@H](NC(=O)Cc1ccccc1)C(=O)NCC(=O)N1c2ccc(NC(=O)OC(C)(C)C)cc2C[C@H]1C(=O)NCc1nn[nH]n1` [Example C31, Tert-Butyl N-[(2S)-1-{2-[(2S,3S)-3-Methyl-2-(2-Phenylacetamido)Pentanamido]Acetyl}-2-[(2H-1,2,3,4-Tetrazol-5-Ylmethyl)Carbamoyl]-2,3-Dihydro-1H-Indol-5-Yl]Carbamate], the IC50 fell in the range of 100 to 1000 nM. With `CC[C@H](C)[C@H](NC(=O)Cc1cccc(N)c1)C(=O)NCC(=O)N1c2ccccc2C[C@H]1C(=O)NCc1nn[nH]n1` [Example A9, (2S)-1-{2-[(2S,3S)-2-[2-(3-Aminophenyl)Acetamido]-3-Methylpentanamido]Acetyl}-N-(2H-1,2,3,4-Tetrazol-5-Ylmethyl)-2,3-Dihydro-1H-Indole-2-Carboxamide Hydrochloride] the figure was 100 to 1000 nM.

Turning to `CC[C@H](C)[C@H](NC(=O)Cc1ccccc1)C(=O)N[C@@H](CC(=O)O)C(=O)N1c2ccccc2C[C@H]1C(=O)NCc1nn[nH]n1` [Example C14], the IC50 lay in the range of 1000 to 10000 nM.

With `CC[C@H](C)[C@H](NC(=O)Cc1ccccc1)C(=O)NCC(=O)N1c2ccc(C)cc2CC1C(=O)NCc1c[nH]nn1` (mixture of isomers) [Example B7, 5-Methyl-1-{2-[(2S,3S)-3-Methyl-2-(2-Phenylacetamido)Pentanamido]Acetyl}-N-(1H-1,2,3-Triazol-4-Ylmethyl)-2,3-Dihydro-1H-Indole-2-Carboxamide], the IC50 is 100 to 1000 nM. With `CC(C)(F)C(NC(=O)Cc1ccccc1)C(=O)NCC(=O)N1c2ccccc2C[C@H]1C(=O)NCc1nn[nH]n1` (mixture of isomers) [Example A41, (2S)-1-{2-[3-Fluoro-3-Methyl-2-(2-Phenylacetamido)Butanamido]Acetyl}-N-(2H-1,2,3,4-Tetrazol-5-Ylmethyl)-2,3-Dihydro-1H-Indole-2-Carboxamide] the figure was more than 10000 nM; with `CC(C)C[C@H](NC(=O)Cc1ccccc1)C(=O)NCC(=O)N1c2ccccc2C[C@H]1C(=O)NCc1nn[nH]n1` [Example C4, (2S)-1-{2-[(2S)-4-Methyl-2-(2-Phenylacetamido)Pentanamido]Acetyl}-N-(2H-1,2,3,4-Tetrazol-5-Ylmethyl)-2,3-Dihydro-1H-Indole-2-Carboxamide], 1000 to 10000 nM; with `CC[C@H](C)[C@H](NC(=O)Cc1ccccc1)C(=O)NCC(=O)N1c2ccc(NC(C)(C)C)cc2C[C@H]1C(=O)NCc1nn[nH]n1` [Example C33, (2S)-5-(Tert-Butylamino)-1-{2-[(2S,3S)-3-Methyl-2-(2-Phenylacetamido)Pentanamido]Acetyl}-N-(2H-1,2,3,4-Tetrazol-5-Ylmethyl)-2,3-Dihydro-1H-Indole-2-Carboxamide], more than 10000 nM.

With `CC[C@H](C)[C@H](NC(=O)Cc1ccccc1)C(=O)N[C@H](CCC(=O)O)C(=O)N1c2ccccc2C[C@H]1C(=O)NCc1nn[nH]n1` [Example C16, (4R)-4-[(2S,3S)-3-Methyl-2-(2-Phenylacetamido)Pentanamido]-5-Oxo-5-[(2S)-2-[(2H-1,2,3,4-Tetrazol-5-Ylmethyl)Carbamoyl]-2,3-Dihydro-1H-Indol-1-Yl]Pentanoic Acid], the IC50 was 100 to 1000 nM.

`O=C(Cc1ccccc1)N[C@H](C(=O)NCC(=O)N1c2ccccc2C[C@H]1C(=O)NCc1nn[nH]n1)C1CCCCC1` [Example A11, (2S)-1-{2-[(2S)-2-Cyclohexyl-2-(2-Phenylacetamido)Acetamido]Acetyl}-N-(2H-1,2,3,4-Tetrazol-5-Ylmethyl)-2,3-Dihydro-1H-Indole-2-Carboxamide]: the IC50 was in the range of 1000 to 10000 nM.

Consider `CC[C@H](C)[C@H](NC(=O)Cc1ccccc1)C(=O)NCC(=O)N1c2cc(NCc3ccccc3)ccc2C[C@H]1C(=O)NCc1nn[nH]n1` [Example C21, (2S)-6-(Benzylamino)-1-{2-[(2S,3S)-3-Methyl-2-(2-Phenylacetamido)Pentanamido]Acetyl}-N-(2H-1,2,3,4-Tetrazol-5-Ylmethyl)-2,3-Dihydro-1H-Indole-2-Carboxamide], for which the IC50 is more than 10000 nM.
